Laboratory results from US9302999B2, “Substituted triazoles as herbicides” (E. I. DU PONT DE NEMOURS AND COMPANY, priority 2012, dated 2016).

How the values were obtained:
Format in all cases: in vivo
[1] = tested on: ducksalad (Heteranthera limosa); assay: Test B flooded paddy: ducksalad; conditions: Flood; 125 g ai/ha; applied to paddy water at 2-leaf stage; visually evaluated after 13 to 15 days
How it was run: (§1)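 Each compound is applied to the floodwater of pots holding 2-leaf seedlings, water standing 3 cm over the soil throughout. Plants stay in a greenhouse 13 to 15 days before visual scoring against controls from 0 (no effect) to 100 (complete control).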

[2] = tested on: sedge, umbrella (small-flower umbrella sedge Cyperus difformis); assay: Test B flooded paddy: sedge, umbrella; conditions: Flood; 125 g ai/ha; applied to paddy water at 2-leaf stage; visually evaluated after 13 to 15 days
How it was run: as §1

[3] = tested on: velvetleaf (Abutilon theophrasti); assay: Test A pre-/postemergence: velvetleaf
How it was run: (§2)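 Each species received preemergence soil-directed spraying and, at the same time, postemergence treatment of seedlings 2–10 cm tall. Formulation: non-phytotoxic solvent mixture including surfactant. Response assessed visually about ten days on, relative to untreated controls, 0–100 scale.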

[4] = tested on: morningglory (Ipomoea spp.); assay: Test A pre-/postemergence: morningglory
How it was run: as §2

[5] = tested on: rice (Oryza sativa); assay: Test B flooded paddy: rice; conditions: Flood; 125 g ai/ha; applied to paddy water at 2-leaf stage; visually evaluated after 13 to 15 days
How it was run: as §1

[6] = tested on: barnyardgrass (Echinochloa crus-galli); assay: Test A pre-/postemergence: barnyardgrass
How it was run: as §2

[7] = tested on: barnyardgrass (Echinochloa crus-galli); assay: Test B flooded paddy: barnyardgrass; conditions: Flood; 125 g ai/ha; applied to paddy water at 2-leaf stage; visually evaluated after 13 to 15 days
How it was run: as §1

[8] = tested on: corn (Zea mays); assay: Test A pre-/postemergence: corn
How it was run: as §2

[9] = tested on: foxtail, giant (giant foxtail, Setaria faberii); assay: Test A pre-/postemergence: foxtail, giant
How it was run: as §2

[10] = tested on: wheat (Triticum aestivum); assay: Test A pre-/postemergence: wheat
How it was run: as §2

[11] = tested on: pigweed (Amaranthus retroflexus); assay: Test A pre-/postemergence: pigweed
How it was run: as §2

[12] = tested on: crabgrass, large (large crabgrass, Digitaria sanguinalis); assay: Test A pre-/postemergence: crabgrass, large
How it was run: as §2

[13] = tested on: wheat (TRZAW, Triticum aestivum); assay: Test H post-emergence, alone and in combination: wheat
From the text: (§3) Seeds of plant species selected from wheat (TRZAW, Triticum aestivum), barley (HORBW, Hordeum vulgare), Kochia (KCHSC, Kochia caoparia) blackgrass (ALOMY, Alopecurus myosuroides), canarygrass (PHAMI, Phalaris minor), Italian ryegrass (LOLMU, Lolium multiflorum) common lambsquarter (CHEAL, Chenopodium album), pigweed (AMARE, Amaranthus retroflexus), Common Chickweed (STEME, Stellaria media), Russian thistle (SASKR, Salsola iberica), Wild Buckwheat (POLCO, Polygonum convolvulus), Catchweed Bedstraw (GALAP, Galium aparine), Mustard (SINAR, Sinapisar arvensis), Henbit Deadnettle (LAMAM, Lamium amplexicaule), Wild Radish (RAPRA, Raphanus raphanistrum), Field Poppy (PAPRH, Papaver rhoeas), Field Violet (VIOAR, Viola arvennsis), Scentless Chamomile (MATIN Matricaria inodora) were planted into soil and treated post-emergence with test chemicals formulated in a non-phytotoxic solvent mixture. Plants were grown in a greenhouse using supplemental lighting to maintain a photoperiod of approximately 14 hours; daytime and nighttime temperatures were approximately 23°-29° and 16°-19° Celsius, respectively. Balanced fertilizer was applied through the watering system. Treated plants and controls were maintained in a greenhouse for 20 days, after which time all species were compared to controls and visually evaluated. Plant response ratings were calculated as the mean of three replicates (unless otherwise indicated), are summarized in Table G, and are based on a scale of 0 to 100 where 0 is no effect and 100 is complete control. A dash (-) response means no test result.

[14] = tested on: Field Violet (VIOAR, Viola arvennsis); assay: Test H post-emergence, alone and in combination: Field Violet
From the text: as §3

[15] = tested on: Mustard (SINAR, Sinapisar arvensis); assay: Test H post-emergence, alone and in combination: Mustard
From the text: as §3

[16] = tested on: Field Poppy (PAPRH, Papaver rhoeas); assay: Test H post-emergence, alone and in combination: Field Poppy
From the text: as §3

[17] = tested on: Catchweed Bedstraw (GALAP, Galium aparine); assay: Test H post-emergence, alone and in combination: Catchweed Bedstraw
From the text: as §3

[18] = tested on: Wild Buckwheat (POLCO, Polygonum convolvulus); assay: Test H post-emergence, alone and in combination: Wild Buckwheat
From the text: as §3

[19] = tested on: barley (HORBW, Hordeum vulgare); assay: Test H post-emergence, alone and in combination: barley
From the text: as §3

[20] = tested on: Wild Radish (RAPRA, Raphanus raphanistrum); assay: Test H post-emergence, alone and in combination: Wild Radish
From the text: as §3

[21] = tested on: common lambsquarter (CHEAL, Chenopodium album); assay: Test H post-emergence, alone and in combination: common lambsquarter
From the text: as §3

[22] = tested on: Common Chickweed (STEME, Stellaria media); assay: Test H post-emergence, alone and in combination: Common Chickweed
From the text: as §3

[23] = tested on: canarygrass (PHAMI, Phalaris minor); assay: Test H post-emergence, alone and in combination: canarygrass
From the text: as §3

[24] = tested on: Italian ryegrass (LOLMU, Lolium multiflorum); assay: Test H post-emergence, alone and in combination: Italian ryegrass
From the text: as §3

[25] = tested on: Kochia (KCHSC, Kochia caoparia); assay: Test H post-emergence, alone and in combination: Kochia
From the text: as §3

[26] = tested on: pigweed (AMARE, Amaranthus retroflexus); assay: Test H post-emergence, alone and in combination: pigweed
From the text: as §3

[27] = tested on: Henbit Deadnettle (LAMAM, Lamium amplexicaule); assay: Test H post-emergence, alone and in combination: Henbit Deadnettle
From the text: as §3

[28] = tested on: Scentless Chamomile (MATIN Matricaria inodora); assay: Test H post-emergence, alone and in combination: Scentless Chamomile
From the text: as §3

[29] = tested on: Russian thistle (SASKR, Salsola iberica); assay: Test H post-emergence, alone and in combination: Russian thistle
From the text: as §3

[30] = tested on: blackgrass (ALOMY, Alopecurus myosuroides); assay: Test H post-emergence, alone and in combination: blackgrass
From the text: as §3

[31] = Postemergence, 125 g ai/ha, 0 to 100 scale, 0 is no effect, 100 is complete control
[32] = Postemergence, 500 g ai/ha, 0 to 100 scale, 0 is no effect, 100 is complete control
[33] = Preemergence, 125 g ai/ha, 0 to 100 scale where 0 is no effect and 100 is complete control
[34] = Preemergence, 500 g ai/ha, 0 to 100 scale (0 no effect, 100 complete control)

FC(F)(F)c1cccc(-n2nc(Oc3ccnc(C(F)(F)F)c3)c(C3CC3)n2)c1 [Compound 200]
100: Plant response rating, Foxtail, Giant [9, 34] | Pigweed plant response rating [11, 32] | Plant response rating, Pigweed [11, 34] | Plant response rating, Crabgrass, Large [12, 34]
20: Corn plant response rating [8, 32] | Foxtail, Giant plant response rating [9, 32]
80: Plant response rating, Crabgrass, Large [12, 33]
50: Plant response rating, Pigweed [11, 31] | Plant response rating, Pigweed [11, 33]
70: Plant response rating, Foxtail, Giant [9, 33]
0: Plant response rating, Ducksalad (0 to 100 scale, 0 is no effect, 100 is complete control) [1] | Plant response rating, Sedge, Umbrella (0 to 100 scale, 0 is no effect, 100 is complete control) [2] | Plant response rating, Velvetleaf [3, 33] | Plant response rating, Velvetleaf [3, 34] | Plant response rating, Morningglory [4, 33] | Plant response rating, Rice (0 to 100 scale, 0 is no effect, 100 is complete control) [5] | Plant response rating, Barnyardgrass [6, 31] | Plant response rating, Barnyardgrass [6, 33] | Plant response rating, Barnyardgrass [6, 34] | Plant response rating, Barnyardgrass (0 to 100 scale, 0 is no effect, 100 is complete control) [7] | Plant response rating, Corn [8, 33] | Plant response rating, Corn [8, 34] | Plant response rating, Wheat [10, 31] | Wheat plant response rating [10, 32] | Plant response rating, Wheat [10, 33] | Plant response rating, Wheat [10, 34]
10: Plant response rating, Velvetleaf [3, 31] | Plant response rating, Morningglory [4, 31] | Plant response rating, Morningglory [4, 34] | Barnyardgrass plant response rating [6, 32] | Plant response rating, Corn [8, 31] | Plant response rating, Foxtail, Giant [9, 31] | Plant response rating, Crabgrass, Large [12, 31]
30: Morningglory plant response rating [4, 32]
40: Velvetleaf plant response rating [3, 32] | Crabgrass, Large plant response rating [12, 32]

COC(=O)c1ccc(C(F)(F)F)nc1S(=O)(=O)NC(=O)Nc1nc(OC)cc(OC)n1 [b2b, flupyrsulfuron-methyl]
20: HORBW plant response ([19]; Rate 8)
70: VIOAR plant response ([14]; Rate 31) | HORBW plant response ([19]; Rate 62)
80: CHEAL plant response ([21]; Rate 62) | LOLMU plant response ([24]; Rate 62) | KCHSC plant response ([25]; Rate 31)
40: PHAMI plant response ([23]; Rate 8)
100: SINAR plant response ([15]; Rate 8) | SINAR plant response ([15]; Rate 31) | SINAR plant response ([15]; Rate 62) | PAPRH plant response ([16]; Rate 8) | PAPRH plant response ([16]; Rate 31) | GALAP plant response ([17]; Rate 62) | POLCO plant response ([18]; Rate 8) | POLCO plant response ([18]; Rate 31) | POLCO plant response ([18]; Rate 62) | RAPRA plant response ([20]; Rate 8) | RAPRA plant response ([20]; Rate 16) | RAPRA plant response ([20]; Rate 31) | RAPRA plant response ([20]; Rate 62) | STEME plant response ([22]; Rate 16) | STEME plant response ([22]; Rate 31) | STEME plant response ([22]; Rate 62) | KCHSC plant response ([25]; Rate 16) | AMARI plant response ([26]; Rate 8) | AMARI plant response ([26]; Rate 16) | AMARI plant response ([26]; Rate 31) | AMARI plant response ([26]; Rate 62) | MATIN plant response ([28]; Rate 31) | ALOMY plant response ([30]; Rate 8) | ALOMY plant response ([30]; Rate 16) | ALOMY plant response ([30]; Rate 31) | ALOMY plant response ([30]; Rate 62)
5: TRZAW plant response ([13]; Rate 16) | TRZAW plant response ([13]; Rate 31)
0: TRZAW plant response ([13]; Rate 8)
30: HORBW plant response ([19]; Rate 16)
85: POLCO plant response ([18]; Rate 16) | CHEAL plant response ([21]; Rate 16) | PHAMI plant response ([23]; Rate 31)
90: PAPRH plant response ([16]; Rate 16) | GALAP plant response ([17]; Rate 8) | GALAP plant response ([17]; Rate 31) | STEME plant response ([22]; Rate 8) | PHAMI plant response ([23]; Rate 62) | LAMAM plant response ([27]; Rate 8) | LAMAM plant response ([27]; Rate 62) | MATIN plant response ([28]; Rate 8)
65: LOLMU plant response ([24]; Rate 31)
95: VIOAR plant response ([14]; Rate 62) | SINAR plant response ([15]; Rate 16) | PAPRH plant response ([16]; Rate 62) | GALAP plant response ([17]; Rate 16) | KCHSC plant response ([25]; Rate 62) | LAMAM plant response ([27]; Rate 16) | LAMAM plant response ([27]; Rate 31) | MATIN plant response ([28]; Rate 16) | MATIN plant response ([28]; Rate 62)
60: HORBW plant response ([19]; Rate 31) | CHEAL plant response ([21]; Rate 8) | LOLMU plant response ([24]; Rate 8) | LOLMU plant response ([24]; Rate 16) | SASKR plant response ([29]; Rate 62)
50: VIOAR plant response ([14]; Rate 8) | SASKR plant response ([29]; Rate 8) | SASKR plant response ([29]; Rate 16) | SASKR plant response ([29]; Rate 31)
75: VIOAR plant response ([14]; Rate 16) | CHEAL plant response ([21]; Rate 31) | KCHSC plant response ([25]; Rate 8)
25: TRZAW plant response ([13]; Rate 62)
55: PHAMI plant response ([23]; Rate 16)
